By inhibition is commonly meant the change of the read-out against control, counted positive when it falls. In general, IC50 refers to the midpoint of a concentration-inhibition curve. Lower therefore signals higher potency.

This passage reports inhibition and IC50 results from ChEMBL document CHEMBL1800013, “Small molecule inhibitors of SHP2 tyrosine phosphatase discovered by virtual screening” (Bioorg Med Chem Lett, 2011).

The source made the active and inactive calls. No cut-off for these calls is given here. Where only a bound is given, the exact number is not on record here.

In assay [1] the target is T1, Tyrosine-protein phosphatase non-receptor type 11 (Homo sapiens) (UniProt Q06124).
T1 sequence (whole entry): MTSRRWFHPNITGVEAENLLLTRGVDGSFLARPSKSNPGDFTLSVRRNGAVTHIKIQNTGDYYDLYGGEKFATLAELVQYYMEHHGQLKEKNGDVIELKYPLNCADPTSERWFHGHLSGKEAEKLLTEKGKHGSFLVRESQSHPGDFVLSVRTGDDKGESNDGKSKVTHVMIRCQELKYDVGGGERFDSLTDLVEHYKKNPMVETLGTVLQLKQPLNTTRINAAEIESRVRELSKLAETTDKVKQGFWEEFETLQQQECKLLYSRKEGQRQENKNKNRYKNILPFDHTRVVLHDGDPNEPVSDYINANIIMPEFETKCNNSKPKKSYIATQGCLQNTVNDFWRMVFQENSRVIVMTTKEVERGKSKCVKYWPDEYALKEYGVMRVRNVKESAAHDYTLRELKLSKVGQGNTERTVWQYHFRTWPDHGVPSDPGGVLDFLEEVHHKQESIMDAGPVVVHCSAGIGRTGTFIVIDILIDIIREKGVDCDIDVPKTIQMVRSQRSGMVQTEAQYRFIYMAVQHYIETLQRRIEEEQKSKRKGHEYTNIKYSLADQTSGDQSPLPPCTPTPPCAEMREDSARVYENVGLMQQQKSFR
The assay can be described thus: Inhibition of SHP2 catalytic domain assessed as inhibition of pNPP to p-nitrophenol conversion at 50 uM after 5 mins by spectrophotometry.

The target of assay [2] is T2, Tyrosine-protein phosphatase non-receptor type 1 (Homo sapiens, UniProt P18031).
T2 sequence (P18031 whole entry): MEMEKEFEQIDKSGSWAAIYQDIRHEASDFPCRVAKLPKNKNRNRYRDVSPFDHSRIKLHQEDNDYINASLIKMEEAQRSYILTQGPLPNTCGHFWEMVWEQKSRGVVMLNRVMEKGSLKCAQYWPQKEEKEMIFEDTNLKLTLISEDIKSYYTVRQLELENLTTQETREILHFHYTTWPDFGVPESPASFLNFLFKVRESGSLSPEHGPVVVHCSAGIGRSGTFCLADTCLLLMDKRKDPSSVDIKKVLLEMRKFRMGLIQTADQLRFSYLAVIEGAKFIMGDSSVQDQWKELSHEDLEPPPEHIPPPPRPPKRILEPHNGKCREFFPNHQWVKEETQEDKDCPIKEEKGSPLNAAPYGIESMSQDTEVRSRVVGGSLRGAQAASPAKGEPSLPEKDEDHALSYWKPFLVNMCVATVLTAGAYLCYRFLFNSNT
The assay can be described thus: Inhibition of PTP1B.

Assay [3] addresses Receptor-type tyrosine-protein phosphatase F (Homo sapiens, UniProt P10586). The assay can be described thus: Inhibition of LAR.
The target in assay [4] is Dual specificity protein phosphatase 3 (Homo sapiens) (UniProt P51452). Description: Inhibition of VHR at 100 uM.
Sequence of Dual specificity protein phosphatase 3 (Homo sapiens) (P51452 whole entry, looked up): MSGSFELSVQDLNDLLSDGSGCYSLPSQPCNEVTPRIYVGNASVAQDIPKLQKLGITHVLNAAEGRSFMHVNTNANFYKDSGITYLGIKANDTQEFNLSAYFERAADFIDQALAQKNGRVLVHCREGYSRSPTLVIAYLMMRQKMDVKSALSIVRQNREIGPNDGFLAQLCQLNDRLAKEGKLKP

Sequence of Receptor-type tyrosine-protein phosphatase F (P10586 whole entry): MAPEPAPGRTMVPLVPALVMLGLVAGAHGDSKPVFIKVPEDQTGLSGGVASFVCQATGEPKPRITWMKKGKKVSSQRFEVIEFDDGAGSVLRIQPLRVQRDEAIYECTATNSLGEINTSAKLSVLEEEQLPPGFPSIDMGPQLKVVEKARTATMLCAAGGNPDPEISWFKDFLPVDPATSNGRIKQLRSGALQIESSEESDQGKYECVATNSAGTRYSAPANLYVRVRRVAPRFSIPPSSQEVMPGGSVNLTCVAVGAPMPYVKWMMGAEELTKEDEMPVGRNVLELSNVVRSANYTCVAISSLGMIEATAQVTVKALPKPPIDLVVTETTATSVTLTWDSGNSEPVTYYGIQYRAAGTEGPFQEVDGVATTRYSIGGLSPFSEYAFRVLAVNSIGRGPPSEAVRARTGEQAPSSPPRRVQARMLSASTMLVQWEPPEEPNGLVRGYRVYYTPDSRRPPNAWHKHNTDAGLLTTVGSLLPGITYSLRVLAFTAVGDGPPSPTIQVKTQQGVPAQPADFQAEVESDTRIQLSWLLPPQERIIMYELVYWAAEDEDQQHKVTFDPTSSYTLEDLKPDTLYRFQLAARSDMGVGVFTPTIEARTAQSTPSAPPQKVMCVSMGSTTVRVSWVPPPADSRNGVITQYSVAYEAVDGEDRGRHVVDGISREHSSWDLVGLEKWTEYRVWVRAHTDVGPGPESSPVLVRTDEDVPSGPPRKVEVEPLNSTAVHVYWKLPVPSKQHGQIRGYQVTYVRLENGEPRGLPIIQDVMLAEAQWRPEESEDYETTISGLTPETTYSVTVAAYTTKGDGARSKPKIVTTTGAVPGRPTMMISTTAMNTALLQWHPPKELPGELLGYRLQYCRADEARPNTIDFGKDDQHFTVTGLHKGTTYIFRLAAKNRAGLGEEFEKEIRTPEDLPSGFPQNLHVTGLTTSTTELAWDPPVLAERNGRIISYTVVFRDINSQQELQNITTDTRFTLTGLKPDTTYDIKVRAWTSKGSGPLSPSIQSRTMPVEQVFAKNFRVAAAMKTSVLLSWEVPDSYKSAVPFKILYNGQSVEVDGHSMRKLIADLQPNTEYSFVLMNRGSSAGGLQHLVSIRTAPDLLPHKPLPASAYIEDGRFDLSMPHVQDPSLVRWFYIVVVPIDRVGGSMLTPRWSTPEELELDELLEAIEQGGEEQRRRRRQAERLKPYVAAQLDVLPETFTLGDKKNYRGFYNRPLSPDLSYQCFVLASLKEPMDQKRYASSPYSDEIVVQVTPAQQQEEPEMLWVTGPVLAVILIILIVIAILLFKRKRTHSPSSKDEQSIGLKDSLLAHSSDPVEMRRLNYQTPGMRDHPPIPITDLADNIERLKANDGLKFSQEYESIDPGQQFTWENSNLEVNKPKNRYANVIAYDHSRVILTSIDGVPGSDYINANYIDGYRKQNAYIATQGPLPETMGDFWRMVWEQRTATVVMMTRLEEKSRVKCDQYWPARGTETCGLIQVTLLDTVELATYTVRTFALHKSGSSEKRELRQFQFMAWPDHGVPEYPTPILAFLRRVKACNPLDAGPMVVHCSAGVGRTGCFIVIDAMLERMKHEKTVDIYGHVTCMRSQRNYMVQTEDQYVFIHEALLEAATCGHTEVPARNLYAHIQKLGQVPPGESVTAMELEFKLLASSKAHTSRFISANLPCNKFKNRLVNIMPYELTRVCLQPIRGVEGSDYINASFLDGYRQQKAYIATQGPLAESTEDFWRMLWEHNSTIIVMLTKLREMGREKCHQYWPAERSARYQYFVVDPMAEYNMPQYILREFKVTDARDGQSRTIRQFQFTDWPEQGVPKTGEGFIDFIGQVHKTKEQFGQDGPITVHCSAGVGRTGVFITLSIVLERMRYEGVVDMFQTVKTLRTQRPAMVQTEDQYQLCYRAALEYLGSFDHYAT

On to `Cc1cc(S(=O)(=O)O)c(S(=O)(=O)O)cc1N1N=C(C(=O)O)CC1=O`, for which the inhibition in assay [1] is 91%. For the same compound, the figures for the IC50 in assay [2] and in assay [3] were 118 µM and above 100 µM, respectively. In addition, the inhibition result in assay [4] is “inactive”.
